These compounds were tested against Substance-P receptor (Homo sapiens, UniProt P25103) (assay: Ability to displace [125I]-substance P from hNK1 receptor in chinese hamster ovarian (CHO) cells).
Assay type: cell-based

Sequence of Substance-P receptor (P25103 whole entry): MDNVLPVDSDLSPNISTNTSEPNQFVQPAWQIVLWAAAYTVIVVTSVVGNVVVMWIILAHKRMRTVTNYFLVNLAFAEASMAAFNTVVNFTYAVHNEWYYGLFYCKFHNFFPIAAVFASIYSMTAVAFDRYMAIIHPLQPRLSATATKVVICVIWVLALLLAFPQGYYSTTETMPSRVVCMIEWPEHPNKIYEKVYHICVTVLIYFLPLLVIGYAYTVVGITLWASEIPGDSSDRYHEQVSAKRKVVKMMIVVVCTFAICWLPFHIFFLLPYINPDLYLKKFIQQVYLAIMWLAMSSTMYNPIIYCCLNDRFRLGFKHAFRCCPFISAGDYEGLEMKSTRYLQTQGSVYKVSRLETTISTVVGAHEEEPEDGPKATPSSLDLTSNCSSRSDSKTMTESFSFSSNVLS

Structure (SMILES) | IC50
CS(=O)(=O)N1CC2(CCN(C(=O)[C@H](COCc3cc(C(F)(F)F)cc(C(F)(F)F)c3)NC(=O)c3ccc(Cl)c(Cl)c3)CC2)c2ccccc21 | 1.3 µM
Cc1cccc(CNC(COCc2ccccc2)C(=O)N2CCC3(CC2)CN(S(C)(=O)=O)c2ccccc23)c1 (centres undefined) | 0.055 µM
CS(=O)(=O)N1CC2(CCN(C(=O)[C@H](COCc3ccccc3Cl)NCc3ccc(Cl)c(Cl)c3)CC2)c2ccccc21 | 0.034 µM
CS(=O)(=O)N1CC2(CCN(C(=O)C(COCc3ccccc3)NCc3cccc(Cl)c3)CC2)c2ccccc21 (centres undefined) | 0.058 µM
CS(=O)(=O)N1CC2(CCN(C(=O)C(COCc3ccccc3)NCc3ccc(Cl)cc3)CC2)c2ccccc21 (centres undefined) | 0.027 µM
CS(=O)(=O)N1CC2(CCN(C(=O)C(CCc3ccc(Cl)c(Cl)c3)NCc3ccccc3)CC2)c2ccccc21 (centres undefined) | 0.455 µM
CS(=O)(=O)N1CC2(CCN(C(=O)C(COCc3ccccc3)NCc3cccc(Br)c3)CC2)c2ccccc21 (centres undefined) | 0.06 µM
CS(=O)(=O)N1CC2(CCN(C(=O)C(COCc3ccccc3)NCc3ccc(Cl)c(Cl)c3)CC2)c2ccccc21 (centres undefined) | 0.012 µM
CS(=O)(=O)N1CC2(CCN(C(=O)[C@H](CS(=O)(=O)Cc3ccc(Cl)c(Cl)c3)NCc3ccccc3)CC2)c2ccccc21 | 0.063 µM
CS(=O)(=O)N1CC2(CCN(C(=O)C(COCc3ccccc3)NCc3cccc(F)c3)CC2)c2ccccc21 (centres undefined) | 0.157 µM
CN(C)c1ccc(CNC(COCc2ccccc2)C(=O)N2CCC3(CC2)CN(S(C)(=O)=O)c2ccccc23)cc1 (centres undefined) | 0.033 µM
CS(=O)(=O)N1CC2(CCN(C(=O)C(COCc3ccccc3)NCc3ccc(Cl)cc3Cl)CC2)c2ccccc21 (centres undefined) | 0.1 µM
CS(=O)(=O)N1CC2(CCN(C[C@H](COCc3ccc(Cl)c(Cl)c3)NCc3ccccc3)CC2)c2ccccc21 | 0.17 µM
CS(=O)(=O)N1CC2(CCN(C(=O)C(CCCc3ccc(Cl)c(Cl)c3)NCc3ccccc3)CC2)c2ccccc21 (centres undefined) | 0.0033 µM
CS(=O)(=O)N1CC2(CCN(C(=O)C(COCc3ccccc3)NC(=O)Cc3ccc(Cl)c(Cl)c3)CC2)c2ccccc21 (centres undefined) | 0.043 µM
CS(=O)(=O)N1CC2(CCN(C(=O)C(COCc3ccccc3)NCc3cccc(Cl)c3Cl)CC2)c2ccccc21 (centres undefined) | 0.153 µM

Now from value to compound:

IC50 | Structure (SMILES)
0.018 µM | CS(=O)(=O)N1CC2(CCN(C(=O)[C@H](COCc3ccccc3)NCc3ccc(Cl)c(Cl)c3)CC2)c2ccccc21
0.542 µM | CS(=O)(=O)N1CC2(CCN(C(=O)C(COCc3ccccc3)NCc3ccccc3Cl)CC2)c2ccccc21 (centres undefined)
0.088 µM | CS(=O)(=O)N1CC2(CCN(C(=O)C(COCc3ccccc3)NS(=O)(=O)c3ccc(Cl)c(Cl)c3)CC2)c2ccccc21 (centres undefined)
0.895 µM | CS(=O)(=O)N1CC2(CCN(C(=O)C(COCc3ccccc3)NCc3c(Cl)cccc3Cl)CC2)c2ccccc21 (centres undefined)
0.042 µM | CS(=O)(=O)N1CC2(CCN(C(=O)[C@@H](COCc3ccccc3)NCc3ccc(Cl)c(Cl)c3)CC2)c2ccccc21
0.036 µM | CS(=O)(=O)N1CC2(CCN(C(=O)[C@H](COCc3ccccc3Cl)NCc3ccccc3)CC2)c2ccccc21
0.011 µM | CS(=O)(=O)N1CC2(CCN(C(=O)[C@H](COCc3cccc(Cl)c3)NCc3ccc(Cl)c(Cl)c3)CC2)c2ccccc21
0.057 µM | COc1ccc(CNC(COCc2ccccc2)C(=O)N2CCC3(CC2)CN(S(C)(=O)=O)c2ccccc23)cc1 (centres undefined)
0.013 µM | CS(=O)(=O)N1CC2(CCN(C(=O)[C@H](CSCc3ccc(Cl)c(Cl)c3)NCc3ccccc3)CC2)c2ccccc21
0.0077 µM | CS(=O)(=O)N1CC2(CCN(C(=O)[C@H](COCc3cccc(Cl)c3)NCc3ccccc3)CC2)c2ccccc21
0.163 µM | COc1ccccc1CNC(COCc1ccccc1)C(=O)N1CCC2(CC1)CN(S(C)(=O)=O)c1ccccc12 (centres undefined)
0.071 µM | COc1cccc(CNC(COCc2ccccc2)C(=O)N2CCC3(CC2)CN(S(C)(=O)=O)c2ccccc23)c1 (centres undefined)
0.024 µM | CS(=O)(=O)N1CC2(CCN(C(=O)C(CNCc3ccc(Cl)c(Cl)c3)NCc3ccccc3)CC2)c2ccccc21 (centres undefined)
0.26 µM | CS(=O)(=O)N1CC2(CCN(C(=O)C(COCc3ccccc3)NC(=O)c3ccc(Cl)c(Cl)c3)CC2)c2ccccc21 (centres undefined)
0.0017 µM | CS(=O)(=O)N1CC2(CCN(C(=O)[C@H](COCc3ccc(Cl)c(Cl)c3)NCc3ccc(Cl)c(Cl)c3)CC2)c2ccccc21
0.079 µM | CS(=O)(=O)N1CC2(CCN(C(=O)C(COCc3ccccc3)NCc3cc(Cl)cc(Cl)c3)CC2)c2ccccc21 (centres undefined)
0.152 µM | CS(=O)(=O)N1CC2(CCN(C(=O)C(COCc3ccccc3)NCc3cccc(C#N)c3)CC2)c2ccccc21 (centres undefined)
0.054 µM | CN(Cc1ccc(Cl)c(Cl)c1)CC(NCc1ccccc1)C(=O)N1CCC2(CC1)CN(S(C)(=O)=O)c1ccccc12 (centres undefined)
0.12 µM | CS(=O)(=O)N1CC2(CCN(C(=O)C(COCc3ccccc3)NCc3cccc([N+](=O)[O-])c3)CC2)c2ccccc21 (centres undefined)
0.023 µM | CS(=O)(=O)N1CC2(CCN(C(=O)[C@H](COCc3ccc(Cl)cc3)NCc3ccc(Cl)c(Cl)c3)CC2)c2ccccc21
0.0066 µM | CS(=O)(=O)N1CC2(CCN(C(=O)[C@H](COCc3ccc(Cl)cc3)NCc3ccccc3)CC2)c2ccccc21
0.08 µM | CS(=O)(=O)N1CC2(CCN(C(=O)C(COCc3ccccc3)NCc3ccccc3)CC2)c2ccccc21 (centres undefined)
2 µM | CS(=O)(=O)N1CC2(CCN(C(=O)C(N)COCc3ccccc3)CC2)c2ccccc21 (centres undefined)
